Test [1] concerns Beet Armyworm (Spodoptera exigua) ("BAW"), second instar larvae. Briefly: Bioassay on beet armyworm (BAW), 128-well diet tray assay. It counts as in vivo. The note with it: Spodoptera exigua, read-out: BAW (Biological Results, rating). The protocol: (§1) Certain molecules disclosed in this document were tested against BAW and CL using procedures described in the following examples. In the reporting of the results, the “BAW & CL Rating Table” was used (See Table Section).
(§2) Trays were covered with a clear self-adhesive cover and held at 25° C., 14:10 light-dark cycle for five to seven days. Percent mortality was recorded for the larvae in each well; activity in the eight wells was then averaged. The results are indicated in the table entitled “Table ABC: Biological Results” (See Table Section).

Test [2] has as its system Cabbage Looper (Trichoplusia ni) ("CL"), second instar larvae. Briefly: Bioassay on cabbage looper (CL), 128-well diet tray assay. The test is classed as in vivo. The note with it: Trichoplusia ni, read-out: CL (Biological Results, rating). The protocol:
as §1, §2

Structures are written as SMILES.

Take `Cc1ccc(OCC(F)(F)F)c(N2C(=O)CS/C2=N\C(=O)Nc2ccc(-c3ncn(-c4ccc(OC(F)(F)F)cc4)n3)cc2Cl)c1` [Compound J40, (Z)-1-(2-Chloro-4-(1-(4-(trifluoromethoxy)phenyl)-1H-1,2,4-triazol-3-yl)phenyl)-3-(3-(5-methyl-2-(2,2,2-trifluoroethoxy)phenyl)-4-oxothiazolidin-2-ylidene)urea]: the pest or weed control at 50 µg/cm2 in test [1] and in test [2] was 50 to 100% throughout.

In the case of `O=C(/N=C1\SCC(=O)N1c1cc(Cl)ccc1C(F)(F)F)Nc1ccc(-c2ncn(-c3ccc(OC(F)(F)F)cc3)n2)cc1Cl` [Compound J42, (Z)-1-(3-(5-Chloro-2-(trifluoromethyl)phenyl)-4-oxothiazolidin-2-ylidene)-3-(2-chloro-4-(1-(4-(trifluoromethoxy)phenyl)-1H-1,2,4-triazol-3-yl)phenyl)urea], the pest or weed control at 50 µg/cm2 in test [1] and in test [2] was 50 to 100% throughout.

With `CCCc1ccc(OC)cc1N1C(=O)CS/C1=N\C(=O)Nc1ccc(-c2ncn(-c3ccc(OC(F)(F)F)cc3)n2)cc1F` [Compound J43, (Z)-1-(2-Fluoro-4-(1-(4-(trifluoromethoxy)phenyl)-1H-1,2,4-triazol-3-yl)phenyl)-3-(3-(5-methoxy-2-propylphenyl)-4-oxothiazolidin-2-ylidene)urea], the pest or weed control at 50 µg/cm2 in test [1] and in test [2] was 50 to 100% in each case.

For `CCCCc1ccc(C)cc1N1C(=O)CS/C1=N\C(=O)Nc1ccc(-c2ncn(-c3ccc(OC(F)(F)F)cc3)n2)cc1F` [Compound J44, (Z)-1-(3-(2-Butyl-5-methylphenyl)-4-oxothiazolidin-2-ylidene)-3-(2-fluoro-4-(1-(4-(trifluoromethoxy)phenyl)-1H-1,2,4-triazol-3-yl)phenyl)urea], the pest or weed control at 50 µg/cm2 in test [1] and in test [2] was 50 to 100% in each case.

Turning to `CCCCc1ccc(OC)cc1N1C(=O)CS/C1=N\C(=O)Nc1ccc(-c2ncn(-c3ccc(OC(F)(F)F)cc3)n2)cc1F` [Compound J45, (Z)-1-(3-(2-Butyl-5-methoxyphenyl)-4-oxothiazolidin-2-ylidene)-3-(2-fluoro-4-(1-(4-(trifluoromethoxy)phenyl)-1H-1,2,4-triazol-3-yl)phenyl)urea], the pest or weed control at 50 µg/cm2 in test [1] and in test [2] was 50 to 100% each time.

On to `CC(C)c1ccc(Cl)cc1N1C(=O)CS/C1=N\C(=O)Nc1ccc(-c2ncn(-c3ccc(OC(F)(F)F)cc3)n2)cc1F` [Compound J46, (Z)-1-(3-(5-Chloro-2-isopropylphenyl)-4-oxothiazolidin-2-ylidene)-3-(2-fluoro-4-(1-(4-(trifluoromethoxy)phenyl)-1H-1,2,4-triazol-3-yl)phenyl)urea], for which the pest or weed control at 50 µg/cm2 in test [1] and in test [2] was 50 to 100% throughout.

Consider `Cc1ccc(CC(C)C)c(N2C(=O)CS/C2=N\C(=O)Nc2ccc(-c3ncn(-c4ccc(OC(F)(F)F)cc4)n3)cc2F)c1` [Compound J47, (Z)-1-(2-Fluoro-4-(1-(4-(trifluoromethoxy)phenyl)-1H-1,2,4-triazol-3-yl)phenyl)-3-(3-(2-isobutyl-5-methylphenyl)-4-oxothiazolidin-2-ylidene)urea], for which the pest or weed control at 50 µg/cm2 in test [1] and in test [2] was 50 to 100% throughout.

In the case of `CCC(C)c1ccc(OC)cc1N1C(=O)CS/C1=N\C(=O)Nc1ccc(-c2ncn(-c3ccc(OC(F)(F)F)cc3)n2)cc1F` (stereo not shown) [Compound J48, (Z)-1-(3-(2-(sec-Butyl)-5-methoxyphenyl)-4-oxothiazolidin-2-ylidene)-3-(2-fluoro-4-(1-(4-(trifluoromethoxy)phenyl)-1H-1,2,4-triazol-3-yl)phenyl)urea], the pest or weed control at 50 µg/cm2 in test [1] and in test [2] was 50 to 100% in each case.

`COC(C)c1ccc(C)cc1N1C(=O)CS/C1=N\C(=O)Nc1ccc(-c2ncn(-c3ccc(OC(F)(F)F)cc3)n2)cc1F` (stereo not shown) [Compound J49, (Z)-1-(2-Fluoro-4-(1-(4-(trifluoromethoxy)phenyl)-1H-1,2,4-triazol-3-yl)phenyl)-3-(3-(2-(1-methoxyethyl)-5-methylphenyl)-4-oxothiazolidin-2-ylidene)urea]: the pest or weed control at 50 µg/cm2 in test [1] and in test [2] was 50 to 100% throughout.

In the case of `O=C(/N=C1\SCC(=O)N1c1cc(C(F)(F)F)ccc1C(F)(F)F)Nc1ccc(-c2ncn(-c3ccc(OC(F)(F)F)cc3)n2)cc1F` [Compound J50, (Z)-1-(3-(2,5-Bis(trifluoromethyl)phenyl)-4-oxothiazolidin-2-ylidene)-3-(2-fluoro-4-(1-(4-(trifluoromethoxy)phenyl)-1H-1,2,4-triazol-3-yl)phenyl)urea], the pest or weed control at 50 µg/cm2 in test [1] and in test [2] was 50 to 100% each time.

Regarding `CCC(C)Oc1ccc(C)cc1N1C(=O)CS/C1=N\C(=O)Nc1ccc(-c2ncn(-c3ccc(OC(F)(F)F)cc3)n2)cc1F` (stereo not shown) [Compound J51, (Z)-1-(3-(2-(sec-Butoxy)-5-methylphenyl)-4-oxothiazolidin-2-ylidene)-3-(2-fluoro-4-(1-(4-(trifluoromethoxy)phenyl)-1H-1,2,4-triazol-3-yl)phenyl)urea], the pest or weed control at 50 µg/cm2 in test [1] and in test [2] was 50 to 100% throughout.

On to `CCCc1ccc(C)cc1N1C(=O)CS/C1=N\C(=O)Nc1ccc(-c2ncn(-c3ccc(OC(F)(F)F)cc3)n2)cc1C` [Compound J53, (Z)-1-(3-(5-Methyl-2-propylphenyl)-4-oxothiazolidin-2-ylidene)-3-(2-methyl-4-(1-(4-(trifluoromethoxy)phenyl)-1H-1,2,4-triazol-3-yl)phenyl)urea], for which the pest or weed control at 50 µg/cm2 in test [1] and in test [2] was 50 to 100% in each case.

Consider `COc1ccc(C(C)C)c(N2C(=O)CS/C2=N\C(=O)Nc2ccc(-c3ncn(-c4ccc(OC(F)(F)F)cc4)n3)cc2C)c1` [Compound J54, (Z)-1-(3-(2-Isopropyl-5-methoxyphenyl)-4-oxothiazolidin-2-ylidene)-3-(2-methyl-4-(1-(4-(trifluoromethoxy)phenyl)-1H-1,2,4-triazol-3-yl)phenyl)urea], for which the pest or weed control at 50 µg/cm2 in test [1] and in test [2] was 50 to 100% each time.

Turning to `Cc1ccc(OCC(F)(F)F)c(N2C(=O)CS/C2=N\C(=O)Nc2ccc(-c3ncn(-c4ccc(OC(F)(F)F)cc4)n3)cc2C)c1` [Compound J55, (Z)-1-(3-(5-Methyl-2-(2,2,2-trifluoroethoxy)phenyl)-4-oxothiazolidin-2-ylidene)-3-(2-methyl-4-(1-(4-(trifluoromethoxy)phenyl)-1H-1,2,4-triazol-3-yl)phenyl)urea], the pest or weed control at 50 µg/cm2 in test [1] and in test [2] was 50 to 100% each time.

Regarding `Cc1ccc(OCCC(F)(F)F)c(N2C(=O)CS/C2=N\C(=O)Nc2ccc(-c3ncn(-c4ccc(OC(F)(F)F)cc4)n3)cc2C)c1` [Compound J56, (Z)-1-(3-(5-Methyl-2-(3,3,3-trifluoropropoxy)phenyl)-4-oxothiazolidin-2-ylidene)-3-(2-methyl-4-(1-(4-(trifluoromethoxy)phenyl)-1H-1,2,4-triazol-3-yl)phenyl)urea], the pest or weed control at 50 µg/cm2 in test [1] and in test [2] was 50 to 100% each time.

In the case of `Cc1ccc(C(C)C)c(N2C(=O)CS/C2=N\C(=O)Nc2ccc(-c3ncn(-c4ccc(OCC(F)(F)F)cc4)n3)cc2F)c1` [Compound J57, (Z)-1-(2-Fluoro-4-(1-(4-(2,2,2-trifluoroethoxy)phenyl)-1H-1,2,4-triazol-3-yl)phenyl)-3-(3-(2-isopropyl-5-methylphenyl)-4-oxothiazolidin-2-ylidene)urea], the pest or weed control at 50 µg/cm2 in test [1] and in test [2] was 50 to 100% in each case.

On to `COc1ccc(C(C)C)c(N2C(=O)CS/C2=N\C(=O)Nc2ccc(-c3ncn(-c4ccc(OCC(F)(F)F)cc4)n3)cc2F)c1` [Compound J58, (Z)-1-(2-Fluoro-4-(1-(4-(2,2,2-trifluoroethoxy)phenyl)-1H-1,2,4-triazol-3-yl)phenyl)-3-(3-(2-isopropyl-5-methoxyphenyl)-4-oxothiazolidin-2-ylidene)urea], for which the pest or weed control at 50 µg/cm2 in test [1] and in test [2] was 50 to 100% throughout.

As to `CCOc1ccc(C)cc1N1C(=O)CS/C1=N\C(=O)Nc1ccc(-c2ncn(-c3ccc(OC(F)(F)F)cc3)n2)cc1F` [Compound J59, (Z)-1-(3-(2-Ethoxy-5-methylphenyl)-4-oxothiazolidin-2-ylidene)-3-(2-fluoro-4-(1-(4-(trifluoromethoxy)phenyl)-1H-1,2,4-triazol-3-yl)phenyl)urea], the pest or weed control at 50 µg/cm2 in test [1] and in test [2] was 50 to 100% throughout.

Turning to `COC(C)c1ccc(C)cc1N1C(=O)CS/C1=N\C(=O)Nc1ccc(-c2ncn(-c3ccc(OC(F)(F)F)cc3)n2)cc1C` (stereo not shown) [Compound J60, (Z)-1-(3-(2-(1-Methoxyethyl)-5-methylphenyl)-4-oxothiazolidin-2-ylidene)-3-(2-methyl-4-(1-(4-(trifluoromethoxy)phenyl)-1H-1,2,4-triazol-3-yl)phenyl)urea], the pest or weed control at 50 µg/cm2 in test [1] and in test [2] was 50 to 100% each time.

For the compound `Cc1ccc(C(C)C)c(N2C(=O)CS/C2=N\C(=O)Nc2ccc(-c3ncn(-c4ccc(C(F)(F)F)cc4)n3)cc2F)c1` [Compound J61, (Z)-1-(2-Fluoro-4-(1-(4-(trifluoromethyl)phenyl)-1H-1,2,4-triazol-3-yl)phenyl)-3-(3-(2-isopropyl-5-methylphenyl)-4-oxothiazolidin-2-ylidene)urea], the pest or weed control at 50 µg/cm2 in test [1] and in test [2] was 50 to 100% throughout.

The values are drawn from patent US20230077362A1 (CORTEVA AGRISCIENCE LLC, priority 2019, published 2023).
